Results taken from PMC3498381, “Isolated Toll-like Receptor Transmembrane Domains Are Capable of Oligomerization” (PLoS ONE, 2012).
No end group written: not given here.

Experiments:
[1] = tested on: homotypic TMD-TMD interaction (ToxR / ctx promoter / β-galactosidase reporter in FHK12 E. coli); test: Homotypic ToxR reporter assay (β-galactosidase); format: cell-based; conditions: β-galactosidase Miller units normalized to GpA signal and expression levels; FHK12 E. coli; 3 replicates with >6 measurements each, N in table
Experimental: . Various plasmid constructs for this assay make it possible to monitor both homotypic and heterotypic interactions that are driven by TMD-TMD association (Fig. S1).
We first investigated homotypic interactions because the majority of the TLR family members function as homodimers. […] This ΔTM construct consists of the same maltose binding protein and ToxR domain, but lacks a TMD for proper membrane insertion (Fig. S2). Statistical analysis using the Tukey-Kramer test was performed to analyze any significant differences between all possible pairs of average interaction potentials (Table S2). […] Among the TLRs, no discernable differences in grouping based on statistical analysis at p = 0.05 were indicated as all receptors belonged to multiple groups, except for TLR1, which with the lowest interaction potential among the family of receptors only existed in one group (Table S1).
Figure 2 Toll-like Receptor Transmembrane Domain Homotypic Interactions. (A) The ToxR assay was used to study homotypic interactions of the TLR TMDs. A chimeric protein expressing the TMD of interest was monitored through β-galactosidase activity. In all cases, we saw that the TLRs have interaction potential solely from TMD-TMD interactions. Each TLR TMD interaction measurement analysis was performed on 3 technical replicates with >6 measurements for each replicate. Error bars depict the standard error of the mean (n – Table S1). Western blots staining for MBP were performed to monitor expression levels of the constructs – (B) chimeric maltose binding protein expression, (C) endogenous maltose binding protein expression. All samples were normalized to the GpA signal and expression levels.
Briefly, the ToxR plasmids containing the TMD of interest (200 ng) were transformed into chemically competent FHK12 E. coli (200 µL) by incubating on ice for 30 min, heat shock at 42°C for 90 s, incubation on ice for 2 min, and addition of SOC media (800 µL) followed by incubation with shaking for 1 h at 37°C. This transformation mixture (50 µL) was then spread on LB agar plates containing cholaramphenicol (30 µg/mL) and ampicillin (100 µg/mL) and grown overnight at 37°C. Single colonies were selected from the plates in triplicate and added to 5 mL of LB media containing cholaramphenicol (30 µg/mL), ampicillin (100 µg/mL), and arabinose (0.0025%). These cultures were incubated overnight (16–20 h) with shaking at 37°C. The β-galactosidase activity was monitored using a Beckman Coulter DTX 880 plate-reader. First 5 µL of each culture was plated >6 times in a clear 96-well flat bottom culture plate (Sarstedt) containing 100 µL of Z-buffer/chloroform (1% β-mercaptoethanol, 10% chloroform, 89% Z buffer: […], 10 mM potassium chloride, 1 mM magnesium sulfate, pH 7.0). The cell densities of each well were recorded by measuring the OD595. Bacteria were lysed by the addition of 50 µL Z-buffer/SDS (1.6% sodium dodecyl sulfate w/v in Z-buffer) and shaking at 28°C for 10 min. Enzymatic activity was measured by adding 50 µL of Z-buffer/ortho-Nitrophenyl-β-[…] (ONPG) (0.4% ONPG w/v in Z-buffer) and monitoring the reaction at 405 nm for a period of 20 min at 30 s intervals. Miller units were calculated using the equation: [drawing 1]
Western blotting was performed with antiserum recognizing the maltose-binding protein moiety of the constructs (Abcam). Data were normalized to GpA Miller Units and protein expression levels using ImageJ (NIH) as reported previously.

[2] = tested on: TLR6 TMD (functional ToxR chimera); test: Dominant-negative (heterotypic) ToxR assay, TLR6 as dominant phenotype; format: cell-based, E. coli; conditions: Miller units normalized to poly-Leu* = 1 and corrected for expression, lower = stronger interaction, N in table
Excerpt: Next, we investigated heterotypic interactions of the TLRs. We specifically studied TLR2, TLR1, and TLR6 because they are cell surface expressed receptors known to form functional heterodimers. To determine the ability of these three cell surface TLRs to have heterotypic interactions within its family, we studied the ability of the TLR1, TLR2, and TLR6 TMDs to interact with the TLR receptors also expressed at the cell surface; namely, TLR1, TLR2, TLR4, TLR5, TLR6, and TLR10. We monitored these interactions using a dominant-negative ToxR assay (Fig. S1B) which works by having a second TMD expressed with a non-functional ToxR* intracellular domain. This ToxR* domain is incapable of binding the ctx promoter making any interactions with this second expressed TMD unable to produce the reporter enzyme. As such, any interaction between the functional ToxR and non-functional ToxR* TMDs will result in a reduction in signal output.
Figure 3 Cell- Surface Toll-like Recptor Heterotypic Interactions. (A) A dominant-negative ToxR assay was used to study heterotypic interactions of the cell-surface TLRs. Two TLR TMDs were encoded in the FHK12 E.coli reporter strain, one with a functional ToxR domain (dominant phenotype) and one with a nonfunctional ToxR* domain (negative phenotype). Interaction between the two different TMDs leads to a reduction in signal from that seen for homotypic interactions. The TMDs for GpA, TLR1, TLR2, and TLR6 were used with the functional ToxR domain while TMDs for poly-Leucine, TMD5, integrin αIIb, TLR1, TLR2, TLR4, TLR5, TLR6, and TLR10 were used with the nonfunctional ToxR* domain. Interactions were most prominent for the TLRs known to have heterotypic interactions – TLR2-TLR1 and TLR2-TLR6. […] We also saw interaction with the same TMD further validating the homotypic interactions. […] Each dominant phenotype was done in 3 technical replicates with each negative phenotype and >6 measurements made for each replicate. Error bars depict the standard error of the mean (n- Tables S3, S5, S7, S9). Western blots staining for MBP were performed to monitor expression levels of the constructs with the upper band being functional ToxR chimeras and the lower band being nonfunctional ToxR* chimeras – (B) GpA, (C) TLR1, (D) TLR2, and (E) TLR6. Significant differences for the same dominant phenotype were determined by use of the Tukey-Kramer test.
For heterotypic interactions one plasmid containing a functional ToxR domain (200 ng) and a second plasmid containing a non-functional ToxR* domain (200 ng) were co-transformed into chemically competent FHK12 E. coli (400 µL) by incubating on ice for 30 min, heat shock at 42°C for 90 s, incubation on ice for 2 min, and addition of SOC media (1600 µL) followed by incubation with shaking for 1 h at 37°C. This transformation mixture (50 µL) was then used to spread LB-agar plates containing cholaramphenicol (30 µg/mL), kanamycin (33 µg/mL), and ampicillin (100 µg/mL) and grown overnight at 37°C. Single colonies were selected from the plates and grown in 5 mL LB media containing cholaramphenicol (30 µg/mL), kanamycin (33 µg/mL), ampicillin (100 µg/mL), and arabinose (0.0025%) overnight (16–20 h) with shaking at 37°C. Analysis of activity was monitored as described in homotypic ToxR assays. Western blotting was done in the same manner as the homotypic ToxR assay with one band appearing for the functional ToxR construct and a second band for the nonfunctional ToxR* construct. Data were normalized to poly-Leu* Miller Units and corrected for varying protein expression levels using ImageJ (NIH) as previously reported.

Row | Substance | Mean homotypic TMD interaction (ToxR) [1] | Mean TLR6-TMD* heterotypic interaction (ToxR signal) [2]
1 | TLR6*: TLR6 TMD chimera with nonfunctional ToxR* domain (negative phenotype) (GNRASITLLIVTIGATMLVLAVTVTSLCIYLGSLIN; also: fused to non-functional ToxR* (S87H) and maltose binding protein, ends not given here) | 0.5764 | 0.2564
2 | TLR1*: TLR1 TMD chimera with nonfunctional ToxR* domain (negative phenotype) (GNRASITLLIVTIVATMLVLAVTVTSLCSYLGSLIN; also: fused to non-functional ToxR* (S87H) and maltose binding protein, ends not given here) | 0.4775 | 0.3316
3 | TLR2*: TLR2 TMD chimera with nonfunctional ToxR* domain (negative phenotype) (GNRASALVSGMCCALFLLILLTGVLCGSLIN; cysteine pairing not given here; also: fused to non-functional ToxR* (S87H) and maltose binding protein, ends not given here) | 0.7829 | 0.2802
